Data: US7128910B2, “Moraxella catarrahalis outer membrane protein-106 polypeptide, gene sequences and uses thereof” (priority 1996, dated 2006)

Test system: M. catarrhalis ATCC 49143
Experiment: Proteolytic digestion of intact cells followed by hemagglutination test
Assay type: cell-based, Moraxella catarrhalis
Details: intact cells digested 1 hour at room temperature
Experimental: All proteases were obtained from Sigma Chemicals (St. Louis, Mo.). Immediately following the protease treatment, cells were washed once in PBS and resuspended in 1 ml of PBS and the hemagglutinating activity was tested. Additionally, protease-treated bacterial cells were extracted with octyl glucoside so the outer membrane proteins could be resolved to identify specific proteins that may have been digested by the proteases.

Substance | Effect of protease treatment on hemagglutination activity
chymotrypsin | destroyed the hemagglutination activity
proteinase V8: Protease from Sigma Chemicals | did not affect hemagglutination activity
trypsin | partially destroyed hemagglutination activity
